Columns and labels:
[1] = system: bicistronic HCV replicon (replicon RNA, GenBank Accession No. AJ242654); assay: HCV Replicon Assay; type: cell-based; conditions: Hepatitis C virus, 72 h, read-out: Replicon IC50

Row | Compound | melting point [°C] | IC50 [1] [nM]
1 | Cc1ccc2c(c1)c(C#N)c(-c1ncc(S(=O)(=O)N[C@@H](C)C3CC3)cn1)n2CC1CC1 [compound 561, 2-[3-cyano-1-(cyclopropylmethyl)-5-methyl-1H-indol-2-yl]-N-[(1S)-1-cyclopropylethyl]pyrimidine-5-sulfonamide] | 174 to 178 | 500 to 2000
2 | Cc1ccc2c(C#N)c(-c3ccc(S(=O)(=O)NC(C)(C)C(F)(F)F)cn3)n(-c3ccccn3)c2c1 [compound 686, 6-[3-cyano-6-methyl-1-(pyridin-2-yl)-1H-indol-2-yl]-N-(1,1,1-trifluoro-2-methylpropan-2-yl)pyridine-3-sulfonamide] | 208 to 209 | < 500
3 | Cc1ccc2c(c1)c(C#N)c(-c1ccc(S(=O)(=O)NC(CF)CF)cn1)n2C1CCCCC1 [compound 199, 6-(3-cyano-1-cyclohexyl-5-methyl-1H-indol-2-yl)-N-(1,3-difluoropropan-2-yl)pyridine-3-sulfonamide] | 210 to 215 | < 500
4 | C[C@H](NS(=O)(=O)c1ccc(-c2c(C#N)c3ccc(C4CC4)cc3n2C2CCC2)nc1)C1CC1 [compound 236, 6-(3-cyano-1-cyclobutyl-6-cyclopropyl-1H-indol-2-yl)-N-[(1S)-1-cyclopropylethyl]pyridine-3-sulfonamide] | 170 to 176 | < 500
5 | CC1(NS(=O)(=O)c2ccc(-c3c(C#N)c4cc(Cl)c(OC(F)F)cc4n3C3CCC3)nc2)CC1 [compound 658, 6-[5-chloro-3-cyano-1-cyclobutyl-6-(difluoromethoxy)-1H-indol-2-yl]-N-(1-methylcyclopropyl)pyridine-3-sulfonamide] | 218 to 226 | < 500
6 | Cc1ccc2c(c1)c(C#N)c(-c1ccc(S(=O)(=O)N[C@H](C)C(F)(F)F)cn1)n2C(C)C [compound 485, 6-[3-cyano-5-methyl-1-(propan-2-yl)-1H-indol-2-yl]-N-[(2R)-1,1,1-trifluoropropan-2-yl]pyridine-3-sulfonamide] | 167 to 173 | < 500
7 | N#Cc1c(-c2ncc(S(=O)(=O)NC(CF)CF)cn2)n(C2CCC2)c2cc(OC(F)F)c(Cl)cc12 [compound 659, 2-[5-chloro-3-cyano-1-cyclobutyl-6-(difluoromethoxy)-1H-indol-2-yl]-N-(1,3-difluoropropan-2-yl)pyrimidine-5-sulfonamide] | 228 to 232 | < 500
8 | N#Cc1c(-c2ncc(S(=O)(=O)NC(CF)CF)cn2)n(C2CCCCC2)c2cc(OC(F)(F)F)ccc12 [compound 306, 2-[3-cyano-1-cyclohexyl-6-(trifluoromethoxy)-1H-indol-2-yl]-N-(1,3-difluoropropan-2-yl)pyrimidine-5-sulfonamide] | 168 to 170 | 500 to 2000
9 | C[C@H](NS(=O)(=O)c1ccc(-c2c(C#N)c3ccc(OC(F)(F)F)cc3n2CC2CC2)nc1)C1CC1 [compound 309, 6-[3-cyano-1-(cyclopropylmethyl)-6-(trifluoromethoxy)-1H-indol-2-yl]-N-[(1S)-1-cyclopropylethyl]pyridine-3-sulfonamide] | 115 to 117 | < 500
10 | Cc1cc(F)c2c(C#N)c(-c3ccc(S(=O)(=O)N[C@@H](C)C(F)(F)F)cn3)n(C3CCC3)c2c1 [compound 627, 6-(3-cyano-1-cyclobutyl-4-fluoro-6-methyl-1H-indol-2-yl)-N-[(2S)-1,1,1-trifluoropropan-2-yl]pyridine-3-sulfonamide] | 205 to 210 | < 500
11 | CCc1cc2c(cc1F)c(C(N)=O)c(-c1ccc(S(=O)(=O)N[C@@H](C)C(F)(F)F)cn1)n2-c1cc(C)ccn1 [compound 980, 6-ethyl-5-fluoro-1-(4-methylpyridin-2-yl)-2-(5-{[(2S)-1,1,1-trifluoropropan-2-yl]sulfamoyl}pyridin-2-yl)-1H-indole-3-carboxamide] | 137 to 145 | 500 to 2000
12 | CCc1cc2c(cc1F)c(C#N)c(-c1ccc(S(=O)(=O)NC(C)(C)C)cn1)n2-c1cnccn1 [compound 899, N-tert-butyl-6-[3-cyano-6-ethyl-5-fluoro-1-(pyrazin-2-yl)-1H-indol-2-yl]pyridine-3-sulfonamide] | 196 to 201 | < 500
13 | C[C@@H](NS(=O)(=O)c1ccc(-c2c(C#N)c3ccc(OC(F)F)cc3n2C2CCCCC2)nc1)C(F)(F)F [compound 195, 6-[3-cyano-1-cyclohexyl-6-(difluoromethoxy)-1H-indol-2-yl]-N-[(2R)-1,1,1-trifluoropropan-2-yl]pyridine-3-sulfonamide] | 170 to 172 | < 500
14 | Cc1cc2c(cc1F)c(C(N)=O)c(-c1ccc(S(=O)(=O)N[C@@H](C)C(F)(F)F)cn1)n2C1CCCC1 [compound 700, 1-cyclopentyl-5-fluoro-6-methyl-2-(5-{[(2S)-1,1,1-trifluoropropan-2-yl]sulfamoyl}pyridin-2-yl)-1H-indole-3-carboxamide] | 244 to 246 | < 500
15 | C[C@H](NS(=O)(=O)c1ccc(-c2c(C#N)c3cc(F)ccc3n2C2CCCCC2)nc1)C(F)(F)F [compound 410, 6-(3-cyano-1-cyclohexyl-5-fluoro-1H-indol-2-yl)-N-[(2S)-1,1,1-trifluoropropan-2-yl]pyridine-3-sulfonamide] | 209 to 211 | < 500
16 | Cc1ccc2c(c1F)c(C#N)c(-c1ccc(S(=O)(=O)NC(C)(C)C(F)(F)F)cn1)n2C1CCCC1 [compound 614, 6-(3-cyano-1-cyclopentyl-4-fluoro-5-methyl-1H-indol-2-yl)-N-(1,1,1-trifluoro-2-methylpropan-2-yl)pyridine-3-sulfonamide] | 200 to 205 | 500 to 2000
17 | Cc1cc2c(cc1F)c(C#N)c(-c1ccc(S(=O)(=O)NC(C)(C)C(F)(F)F)cn1)n2C1CCCC1 [compound 681, 6-(3-cyano-1-cyclopentyl-5-fluoro-6-methyl-1H-indol-2-yl)-N-(1,1,1-trifluoro-2-methylpropan-2-yl)pyridine-3-sulfonamide] | 223 to 225 | < 500
18 | CCc1cc2c(cc1F)c(C(N)=O)c(-c1ccc(S(=O)(=O)N[C@@H](C)C(F)(F)F)cn1)n2-c1ccnc(C)n1 [compound 982, 6-ethyl-5-fluoro-1-(2-methylpyrimidin-4-yl)-2-(5-{[(2S)-1,1,1-trifluoropropan-2-yl]sulfamoyl}pyridin-2-yl)-1H-indole-3-carboxamide] | 115 to 120 | 2000 to 5000
19 | CCn1c(-c2ccc(N(CC(F)F)S(=O)(=O)C3CC3)nc2)c(C#N)c2ccc(OC(C)C)cc21 [compound 292, N-{5-[3-cyano-1-ethyl-6-(propan-2-yloxy)-1H-indol-2-yl]pyridin-2-yl}-N-(2,2-difluoroethyl)cyclopropanesulfonamide] | 232 to 235 | 500 to 2000
20 | C[C@H](NS(=O)(=O)c1cnc(-c2c(C(N)=O)c3ccc(OC(F)F)cc3n2C2CCCCC2)nc1)C(F)(F)F [compound 746, 1-cyclohexyl-6-(difluoromethoxy)-2-(5-{[(2S)-1,1,1-trifluoropropan-2-yl]sulfamoyl}pyrimidin-2-yl)-1H-indole-3-carboxamide] | 217 to 219 | < 500
21 | Cc1ccc2c(c1)c(C#N)c(-c1ccc(S(=O)(=O)N[C@H](C)C(F)(F)F)cn1)n2C1CCC1 [compound 484, 6-(3-cyano-1-cyclobutyl-5-methyl-1H-indol-2-yl)-N-[(2R)-1,1,1-trifluoropropan-2-yl]pyridine-3-sulfonamide] | 134 to 142 | < 500
22 | C[C@H](NS(=O)(=O)c1ccc(-c2c(C#N)c3cc(F)ccc3n2-c2ccc(C(F)(F)F)cn2)nc1)C(F)(F)F [compound 724, 6-{3-cyano-5-fluoro-1-[5-(trifluoromethyl)pyridin-2-yl]-1H-indol-2-yl}-N-[(2S)-1,1,1-trifluoropropan-2-yl]pyridine-3-sulfonamide] | 216 to 218 | 500 to 2000
23 | Cc1cc2c(cc1F)c(C#N)c(-c1ccc(S(=O)(=O)NC(CF)CF)cn1)n2-c1ccccn1 [compound 540, 6-[3-cyano-5-fluoro-6-methyl-1-(pyridin-2-yl)-1H-indol-2-yl]-N-(1,3-difluoropropan-2-yl)pyridine-3-sulfonamide] | 233 to 236 | < 500
24 | CC(C)(NS(=O)(=O)c1ccc(-c2c(C#N)c3ccc(OC(F)F)cc3n2C2CCCC2)nc1)C(F)(F)F [compound 382, 6-[3-cyano-1-cyclopentyl-6-(difluoromethoxy)-1H-indol-2-yl]-N-(1,1,1-trifluoro-2-methylpropan-2-yl)pyridine-3-sulfonamide] | 170 to 174 | < 500
25 | Cc1ccc2c(C#N)c(-c3ccc(S(=O)(=O)NC4CC(F)(F)C4)cn3)n(C3CCC3)c2c1 [compound 245, 6-(3-cyano-1-cyclobutyl-6-methyl-1H-indol-2-yl)-N-(3,3-difluorocyclobutyl)pyridine-3-sulfonamide] | 165 to 166 | < 500
26 | Cc1ccc2c(c1)c(C#N)c(-c1ccc(S(=O)(=O)NC3(C(F)(F)F)CC3)cn1)n2C1CCCC1 [compound 313, 6-(3-cyano-1-cyclopentyl-5-methyl-1H-indol-2-yl)-N-[1-(trifluoromethyl)cyclopropyl]pyridine-3-sulfonamide] | 209 to 214 | < 500
27 | CC(C)(C)NS(=O)(=O)c1ccc(-c2c(C#N)c3cc(Cl)ccc3n2C2CCC2)nc1 [compound 15, N-tert-butyl-6-(5-chloro-3-cyano-1-cyclobutyl-1H-indol-2-yl)pyridine-3-sulfonamide] | 195 to 197 | 500 to 2000
28 | Cc1cc(F)c2c(C#N)c(-c3ccc(S(=O)(=O)N[C@@H](C)C(F)(F)F)cn3)n(C3CCCC3)c2c1 [compound 625, 6-(3-cyano-1-cyclopentyl-4-fluoro-6-methyl-1H-indol-2-yl)-N-[(2S)-1,1,1-trifluoropropan-2-yl]pyridine-3-sulfonamide] | 207 to 211 | < 500

— patent publication US8735414B2 (priority 2009, dated 2014)
